Legend:
HT-29 [1] = experiment: Antitumor activity against human HT-29 cells overexpressing NQO-1 xenografted in ICR mouse assessed as reduction in tumor weight at 30 mg/kg, ip administered every day for 21 days and measured every 2 days relative to control; format: functional; design: scale not given: the % may be the effect or the level left; conditions: time 21 day
HT-29 [2] = experiment: Induction of cell cycle arrest in human HT-29 cells assessed as accumulation of cells at G1 phase at 1 uM incubated for 48 hrs by RNaeA/propidium iodide based flow cytometry analysis (reference value: 62.98 %); format: functional
[3] = target: NAD(P)H dehydrogenase [quinone] 1 (Homo sapiens) (UniProt P15559); experiment: Substrate activity at lyophilized human NQO1 assessed as compound decomposition measured after 6 hrs by HPLC analysis
HT-29 [4] = experiment: Induction of cell cycle arrest in human HT-29 cells assessed as accumulation of cells at G2 phase at 2 uM incubated for 48 hrs by RNaeA/propidium iodide based flow cytometry analysis (reference value: 13.96 %); format: functional
HT-29 [5] = experiment: Antiproliferative activity against human HT-29 cells overexpressing NQO1 assessed as inhibition of cell growth incubated for 72 hrs by MTT assay; format: functional, cell-based; conditions: HT-29, 72 h
HT-29 [6] = experiment: Induction of apoptosis in human HT-29 cells assessed as early apoptotic cells at 4 uM incubated for 48 hrs by Annexin V-FITC/PI staining based flow cytometry analysis (Rvb= 2.41%); format: functional
HT-29 [7] = experiment: Induction of apoptosis in human HT-29 cells assessed as early apoptotic cells at 1 uM incubated for 48 hrs by Annexin V-FITC/PI staining based flow cytometry analysis (Rvb= 2.41%); format: functional
HT-29 [8] = experiment: Induction of cell cycle arrest in human HT-29 cells assessed as accumulation of cells at G2 phase at 4 uM incubated for 48 hrs by RNaeA/propidium iodide based flow cytometry analysis (reference value: 13.96 %); format: functional
[9] = Selectivity index, ratio of IC50 for cytotoxicity against human HFL1 cells to IC50 for antiproliferative activity against human HT-29 cells overexpressing NQO1; format: toxicity, cell-based; conditions: HFL1 cells versus HT-29 cells overexpressing NQO1, read-out: Ratio IC50
HT-29 [10] = experiment: Induction of apoptosis in human HT-29 cells assessed as late apoptotic cells at 2 uM incubated for 48 hrs by Annexin V-FITC/PI staining based flow cytometry analysis (Rvb= 1.04%); format: functional
HT-29 [11] = experiment: Induction of apoptosis in human HT-29 cells assessed as upregulation of caspase-3 protein expression incubated for 48 hrs by Western blot analysis; format: functional, cell-based; conditions: dose 1-4 µM, DDE = dose-dependent effect
[12] = target: NAD(P)H dehydrogenase [quinone] 1 (Homo sapiens) (UniProt P15559); experiment: Substrate activity at lyophilized human NQO1 assessed as compound decomposition measured after 60 hrs by HPLC analysis
HT-29 [13] = experiment: Induction of apoptosis in human HT-29 cells assessed as viable cells at 4 uM incubated for 48 hrs by Annexin V-FITC/PI staining based flow cytometry analysis (Rvb= 96.54%); format: functional; conditions: read-out: Activity
HT-29 [14] = experiment: Induction of cell cycle arrest in human HT-29 cells assessed as accumulation of cells at S phase at 2 uM incubated for 48 hrs by RNaeA/propidium iodide based flow cytometry analysis (reference value: 23.06 %); format: functional
A549 = experiment: Antiproliferative activity against human A549 cells overexpressing NQO1 assessed as inhibition of cell growth incubated for 72 hrs by MTT assay; format: functional, cell-based; conditions: A549, 72 h
HT-29 [15] = experiment: Induction of apoptosis in human HT-29 cells assessed as dead cells at 4 uM incubated for 48 hrs by Annexin V-FITC/PI staining based flow cytometry analysis (Rvb= 0.01%); format: functional
[16] = Selectivity index, ratio of IC50 for antiproliferative activity against NQO1-deficient human NCI-H596 cells to IC50 for antiproliferative activity against human HT-29 cells overexpressing NQO1; format: functional
HT-29 [17] = experiment: Antiproliferative activity against human HT-29 cells overexpressing NQO1 assessed as inhibition of cell growth preincubated with NQO1 inhibitor, dicoumarol for 30 mins followed by compound addition and measured after 72 hrs by MTT assay; format: functional, cell-based
HT-29 [18] = experiment: Antitumor activity against human HT-29 cells overexpressing NQO-1 xenografted in ICR mouse assessed as reduction in tumor weight at 15 mg/kg, ip administered every day for 21 days and measured every 2 days relative to control; format: functional; design: scale not given: the % may be the effect or the level left; conditions: time 21 day
HT-29 [19] = experiment: Induction of oxidative stress in human HT-29 cells assessed as increase in intracellular ROS generation incubated for 48 hrs by DCF-DA fluorescent probe based flow cytometry analysis; format: functional, cell-based; conditions: dose 1-4 µM, DDE = dose-dependent effect
HT-29 [20] = experiment: Induction of apoptosis in human HT-29 cells assessed as downregulation of Bcl-xl protein expression incubated for 48 hrs by Western blot analysis; format: functional, cell-based; conditions: dose 1-4 µM, DDE = dose-dependent effect
HT-29 [21] = experiment: Induction of apoptosis in human HT-29 cells assessed as upregulation of cytochrome C protein expression incubated for 48 hrs by Western blot analysis; format: functional, cell-based; conditions: dose 1-4 µM, DDE = dose-dependent effect
HT-29 [22] = experiment: Induction of mitochondrial membrane potential loss in human HT-29 cells assessed as JC-1 monomer formation by measuring increase in green intensity at 2 uM incubated for 48 hrs by JC-1 staining based flow cytometry analysis (reference value: 6.54 %); format: functional
HT-29 [23] = experiment: Induction of mitochondrial membrane potential loss in human HT-29 cells assessed as healthy cells at 1 uM incubated for 48 hrs by JC-1 staining based flow cytometry analysis (reference value: 93.4 %); format: functional
HT-29 [24] = experiment: Induction of apoptosis in human HT-29 cells assessed as dead cells at 1 uM incubated for 48 hrs by Annexin V-FITC/PI staining based flow cytometry analysis (Rvb= 0.01%); format: functional
[25] = Cytotoxicity against human HFL1 cells assessed as inhibition of cell growth incubated for 72 hrs by MTT assay; format: toxicity, cell-based
HT-29 [26] = experiment: Induction of mitochondrial membrane potential loss in human HT-29 cells assessed as healthy cells at 4 uM incubated for 48 hrs by JC-1 staining based flow cytometry analysis (reference value: 93.4 %); format: functional
HT-29 [27] = experiment: Induction of cell cycle arrest in human HT-29 cells assessed as accumulation of cells at G2 phase at 1 uM incubated for 48 hrs by RNaeA/propidium iodide based flow cytometry analysis (reference value: 13.96 %); format: functional
HT-29 [28] = experiment: Induction of apoptosis in human HT-29 cells assessed as late apoptotic cells at 4 uM incubated for 48 hrs by Annexin V-FITC/PI staining based flow cytometry analysis (Rvb= 1.04%); format: functional
HT-29 [29] = experiment: Induction of mitochondrial membrane potential loss in human HT-29 cells assessed as healthy cells at 2 uM incubated for 48 hrs by JC-1 staining based flow cytometry analysis (reference value: 93.4 %); format: functional
HT-29 [30] = experiment: Induction of apoptosis in human HT-29 cells assessed as early apoptotic cells at 2 uM incubated for 48 hrs by Annexin V-FITC/PI staining based flow cytometry analysis (Rvb= 2.41%); format: functional
HT-29 [31] = experiment: Induction of cell cycle arrest in human HT-29 cells assessed as accumulation of cells at S phase at 4 uM incubated for 48 hrs by RNaeA/propidium iodide based flow cytometry analysis (reference value: 23.06 %); format: functional
HT-29 [32] = experiment: Induction of apoptosis in human HT-29 cells assessed as viable cells at 1 uM incubated for 48 hrs by Annexin V-FITC/PI staining based flow cytometry analysis (Rvb= 96.54%); format: functional; conditions: read-out: Activity
HT-29 [33] = experiment: Induction of apoptosis in human HT-29 cells assessed as viable cells at 2 uM incubated for 48 hrs by Annexin V-FITC/PI staining based flow cytometry analysis (Rvb= 96.54%); format: functional; conditions: read-out: Activity

Chain of NAD(P)H dehydrogenase [quinone] 1 (Homo sapiens) (P15559 whole entry): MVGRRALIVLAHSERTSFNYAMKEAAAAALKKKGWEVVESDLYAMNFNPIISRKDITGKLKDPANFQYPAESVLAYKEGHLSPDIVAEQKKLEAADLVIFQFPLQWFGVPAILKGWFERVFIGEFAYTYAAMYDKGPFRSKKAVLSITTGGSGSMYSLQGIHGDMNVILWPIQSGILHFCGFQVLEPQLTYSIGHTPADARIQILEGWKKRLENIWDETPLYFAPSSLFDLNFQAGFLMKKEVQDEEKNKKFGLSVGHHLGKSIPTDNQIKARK

For `C=C(C)[C@@H]1CC[C@]2(C(=O)OCCOC(=O)CCC(=O)OCc3cn(C)c4c3C(=O)C(OC)=CC4=O)CC[C@]3(C)[C@H](CC[C@@H]4[C@@]5(C)CC[C@H](O)[C@@](C)(CO)[C@@H]5CC[C@]43C)[C@@H]12`, which Activity (HT-29 [1]) is on record?
The Activity was 72.69%.

What about the Activity (HT-29 [2]) of the same compound?
Its Activity is 56.44%.

And the Activity [3]?
The Activity was 50%.

And the Activity (HT-29 [4])?
Its Activity is 25.17%.

And the IC50 (HT-29 [5])?
The IC50 was 1870 nM.

What about the Activity (HT-29 [6]) of the same compound?
The Activity was 32.28%.

And the Activity (HT-29 [7])?
Its Activity is 12.54%.

What about the Activity (HT-29 [8]) of the same compound?
Its Activity is 32.73%.

What about the selectivity ratio [9] of the same compound?
The selectivity ratio was 4.16.

What about the Activity (HT-29 [10]) of the same compound?
Its Activity is 16.77%.

And the Activity (HT-29 [11])?
The Activity was “Dde”.

And the Activity [12]?
The Activity was 100%.

What about the viability at 4 µM (HT-29 [13]) of the same compound?
The viability at 4 µM was 38.4%.

And the Activity (HT-29 [14])?
The Activity was 22.1%.

And the IC50 (A549)?
Its IC50 is 2360 nM.

What about the Activity (HT-29 [15]) of the same compound?
Its Activity is 6.74%.

And the “Ratio IC50” value [16]?
The value was 3.44.

And the IC50 (HT-29 [17])?
Its IC50 is 9.22 µM.

What about the Activity (HT-29 [18]) of the same compound?
The Activity was 55.89%.

What about the Activity (HT-29 [19]) of the same compound?
The Activity was “Dde”.

And the Activity (HT-29 [20])?
The Activity was “Dde”.

What about the Activity (HT-29 [21]) of the same compound?
The Activity was “Dde”.

What about the Activity (HT-29 [22]) of the same compound?
Its Activity is 33.41%.

What about the Activity (HT-29 [23]) of the same compound?
Its Activity is 79.07%.

What about the Activity (HT-29 [24]) of the same compound?
The Activity was 2.16%.

And the IC50 at 72 h [25]?
Its IC50 at 72 h is 6.45 µM.

And the Activity (HT-29 [26])?
Its Activity is 55.52%.

What about the Activity (HT-29 [27]) of the same compound?
Its Activity is 20.54%.

And the Activity (HT-29 [28])?
The Activity was 22.58%.

What about the Activity (HT-29 [29]) of the same compound?
Its Activity is 66.47%.

What about the Activity (HT-29 [30]) of the same compound?
Its Activity is 22.49%.

And the Activity (HT-29 [31])?
Its Activity is 27.66%.

And the viability at 1 µM (HT-29 [32])?
The viability at 1 µM was 75.5%.

And the viability at 2 µM (HT-29 [33])?
The viability at 2 µM was 55.7%.

— ChEMBL document CHEMBL5113483, “Design and synthesis of NAD(P)H: Quinone oxidoreductase (NQO1)-activated prodrugs of 23-hydroxybetulinic acid with enhanced antitumor properties” (Eur J Med Chem, 2022)
